In ChEMBL document CHEMBL4411307, “N,N'-diaryl-bishydrazones in a biphenyl platform: Broad spectrum antifungal agents” (Eur J Med Chem, 2019):
Converted amounts (≈) assume the structure as drawn. The source made the active and inactive calls. No cut-off for these calls is given here.

Tests used:
[1] = Selectivity index, ratio of CC50 for human A549 cells to MIC for fluconazole/ITC-susceptible Candida albicans ATCC MYA-2310; type: toxicity; details: read-out: Selectivity Index
Aspergillus flavus = test: Antifungal activity against Aspergillus flavus ATCC MYA-3631 measured after 48 hrs by CLSI M38-A2 protocol based method; type: functional; details: ATCC MYA-3631, 48 h
[2] = target: Voltage-gated inwardly rectifying potassium channel KCNH2 (Homo sapiens, UniProt Q12809); test: Inhibition of [3H]-dofetilide binding to human ERG expressed in HEK293 cell membranes measured after 1 hr by liquid scintillation counting method
Sequence of Voltage-gated inwardly rectifying potassium channel KCNH2 (Q12809 whole entry): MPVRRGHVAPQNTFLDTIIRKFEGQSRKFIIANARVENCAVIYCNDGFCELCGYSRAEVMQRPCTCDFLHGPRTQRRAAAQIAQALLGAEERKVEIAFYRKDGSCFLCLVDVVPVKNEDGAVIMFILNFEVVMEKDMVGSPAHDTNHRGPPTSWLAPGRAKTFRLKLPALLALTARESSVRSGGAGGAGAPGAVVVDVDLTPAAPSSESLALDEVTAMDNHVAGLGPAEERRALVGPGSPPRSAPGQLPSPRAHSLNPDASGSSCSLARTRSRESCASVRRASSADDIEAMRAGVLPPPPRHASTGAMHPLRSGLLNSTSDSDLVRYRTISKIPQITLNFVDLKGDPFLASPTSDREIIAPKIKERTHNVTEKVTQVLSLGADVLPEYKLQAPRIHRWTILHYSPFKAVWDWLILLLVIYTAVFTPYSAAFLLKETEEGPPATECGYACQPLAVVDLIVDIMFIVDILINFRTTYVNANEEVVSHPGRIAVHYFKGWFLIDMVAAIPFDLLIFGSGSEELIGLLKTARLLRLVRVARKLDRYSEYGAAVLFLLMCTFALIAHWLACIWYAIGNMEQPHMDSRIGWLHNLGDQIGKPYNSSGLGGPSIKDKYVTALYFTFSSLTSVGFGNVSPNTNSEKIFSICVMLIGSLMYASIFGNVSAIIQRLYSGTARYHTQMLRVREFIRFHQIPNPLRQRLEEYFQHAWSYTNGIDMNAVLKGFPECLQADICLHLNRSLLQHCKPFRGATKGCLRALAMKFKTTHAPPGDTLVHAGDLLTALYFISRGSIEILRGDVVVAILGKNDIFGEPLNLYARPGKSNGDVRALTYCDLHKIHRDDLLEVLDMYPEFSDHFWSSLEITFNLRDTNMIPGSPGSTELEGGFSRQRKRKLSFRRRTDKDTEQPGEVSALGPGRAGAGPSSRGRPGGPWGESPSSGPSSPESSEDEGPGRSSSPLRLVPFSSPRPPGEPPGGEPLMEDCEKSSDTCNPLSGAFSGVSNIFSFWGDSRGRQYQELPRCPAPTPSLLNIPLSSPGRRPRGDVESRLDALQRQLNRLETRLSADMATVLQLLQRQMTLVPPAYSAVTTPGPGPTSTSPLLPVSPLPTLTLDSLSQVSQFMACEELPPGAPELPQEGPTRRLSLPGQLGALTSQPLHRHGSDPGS

[3] = Selectivity index, ratio of CC50 for human A549 cells to MIC for fluconazole/ITC-resistant Candida albicans ATCC MYA-1237; type: toxicity; details: read-out: Selectivity Index
Aspergillus terreus = test: Antifungal activity against Aspergillus terreus ATCC MYA-3633 measured after 48 hrs by CLSI M38-A2 protocol based method; type: functional; details: ATCC MYA-3633, 48 h
[4] = Selectivity index, ratio of CC50 for human A549 cells to MIC for fluconazole/ITC-resistant Candida albicans ATCC 10231; type: toxicity; details: read-out: Selectivity Index
[5] = Hemolytic activity in mouse RBC at […] after 1 hr relative to control; type: ADME, cell-based, Erythrocyte; details: red blood cells (erythrocytes), read-out: Activity; note: tested at 0.48 µg/mL
Candida parapsilosis = test: Antifungal activity against Candida parapsilosis ATCC 22019 measured after 48 hrs by CLSI M27-A3 protocol based method; type: functional; details: Lodderomyces parapsilosis, ATCC 22019, 48 h
[6] = Selectivity index, ratio of CC50 for human A549 cells to MIC for Candida glabrata ATCC 2001; type: toxicity; details: read-out: Selectivity Index
[7] = Selectivity index, ratio of compound concentration showing <20 to <30% hemolysis in mouse RBC to MIC for fluconazole/ITC-resistant Candida albicans ATCC 64124; type: toxicity; details: red blood cells (erythrocytes), read-out: Selectivity Index
[8] = Selectivity index, ratio of compound concentration showing <20 to <30% hemolysis in mouse RBC to MIC for Aspergillus terreus ATCC MYA-3633; type: toxicity; details: mouse red blood cells (RBC), read-out: Selectivity Index
A549 = test: Cytotoxicity against human A549 cells after 24 hrs by resazurin based assay; type: cell-based; details: a549, 24 h
Candida albicans [9] = test: Antifungal activity against fluconazole/ITC-resistant Candida albicans ATCC 64124 measured after 48 hrs by CLSI M27-A3 protocol based method; type: functional; details: ATCC 64124, 48 h
Aspergillus nidulans = test: Antifungal activity against Aspergillus nidulans ATCC 38163 measured after 48 hrs by CLSI M38-A2 protocol based method; type: functional; details: ATCC 38163, 48 h
[10] = Hemolytic activity in mouse RBC at 3.9 ug/ml after 1 hr relative to control; type: ADME, cell-based, Erythrocyte; details: red blood cells (erythrocytes), read-out: Activity
[11] = Selectivity index, ratio of compound concentration showing <20 to <30% hemolysis in mouse RBC to MIC for fluconazole/ITC-susceptible Candida albicans ATCC MYA-2876; type: toxicity; details: red blood cells (erythrocytes), read-out: Selectivity Index
BEAS-2B = test: Cytotoxicity against human BEAS2B cells after 24 hrs by resazurin based assay; type: cell-based
Candida albicans [12] = test: Antifungal activity against fluconazole/ITC-resistant Candida albicans ATCC 10231 measured after 48 hrs by CLSI M27-A3 protocol based method; type: functional; details: ATCC 10231, 48 h
[13] = Selectivity index, ratio of CC50 for human A549 cells to MIC for Candida parapsilosis ATCC 22019; type: toxicity; details: read-out: Selectivity Index
[14] = Selectivity index, ratio of CC50 for human A549 cells to MIC for Candida krusei ATCC 6258; type: toxicity; details: read-out: Selectivity Index
[15] = Selectivity index, ratio of CC50 for human A549 cells to MIC for fluconazole/ITC-resistant Candida albicans ATCC 90819; type: toxicity; details: read-out: Selectivity Index
[16] = Hemolytic activity in mouse RBC at 1.95 ug/ml after 1 hr relative to control; type: ADME, cell-based, Erythrocyte; details: red blood cells (erythrocytes), read-out: Activity
[17] = Selectivity index, ratio of compound concentration showing <20 to <30% hemolysis in mouse RBC to MIC for fluconazole/ITC-resistant Candida albicans ATCC 10231; type: toxicity; details: red blood cells (erythrocytes), read-out: Selectivity Index
Pichia kudriavzevii = test: Antifungal activity against Candida krusei ATCC 6258 measured after 48 hrs by CLSI M27-A3 protocol based method; type: functional; details: ATCC 6258, 48 h
[18] = Selectivity index, ratio of compound concentration showing <20 to <30% hemolysis in mouse RBC to MIC for Candida krusei ATCC 6258; type: toxicity; details: mouse red blood cells (RBC), read-out: Selectivity Index
Enterococcus = test: Antibacterial activity against vancomycin-resistant Enterococcus; type: functional, organism-based
Nakaseomyces glabratus = test: Antifungal activity against Candida glabrata ATCC 2001 measured after 48 hrs by CLSI M27-A3 protocol based method; type: functional; details: CBS 138, 48 h
Candida albicans [19] = test: Antifungal activity against fluconazole/ITC-resistant Candida albicans ATCC 90819 measured after 48 hrs by CLSI M27-A3 protocol based method; type: functional; details: ATCC 90819, 48 h
[20] = Selectivity index, ratio of CC50 for human A549 cells to MIC for Aspergillus nidulans ATCC 38163; type: toxicity; details: read-out: Selectivity Index
[21] = Selectivity index, ratio of compound concentration showing <20 to <30% hemolysis in mouse RBC to MIC for fluconazole/ITC-resistant Candida albicans ATCC MYA-1237; type: toxicity; details: mouse red blood cells (RBC), read-out: Selectivity Index
[22] = Selectivity index, ratio of CC50 for human A549 cells to MIC for Aspergillus flavus ATCC MYA-3631; type: toxicity; details: read-out: Selectivity Index
[23] = Selectivity index, ratio of compound concentration showing <20 to <30% hemolysis in mouse RBC to MIC for fluconazole/ITC-resistant Candida albicans ATCC 90819; type: toxicity; details: red blood cells (erythrocytes), read-out: Selectivity Index
Candida albicans [24] = test: Antifungal activity against fluconazole/ITC-susceptible Candida albicans ATCC MYA-2876 measured after 48 hrs by CLSI M27-A3 protocol based method; type: functional; details: ATCC MYA-2876, 48 h
[25] = Selectivity index, ratio of compound concentration showing <20 to <30% hemolysis in mouse RBC to MIC for Aspergillus nidulans ATCC 38163; type: toxicity; details: mouse red blood cells (RBC), read-out: Selectivity Index
[26] = Hemolytic activity in mouse RBC at 7.8 ug/ml after 1 hr relative to control; type: ADME, cell-based, Erythrocyte; details: red blood cells (erythrocytes), read-out: Activity
Candida albicans [27] = test: Antifungal activity against fluconazole/ITC-resistant Candida albicans ATCC MYA-1003 measured after 48 hrs by CLSI M27-A3 protocol based method; type: functional; details: ATCC MYA-1003, 48 h
[28] = Selectivity index, ratio of compound concentration showing <20 to <30% hemolysis in mouse RBC to MIC for Aspergillus flavus ATCC MYA-3631; type: toxicity; details: mouse red blood cells (RBC), read-out: Selectivity Index
Candida albicans [29] = test: Antifungal activity against fluconazole/ITC-resistant Candida albicans ATCC MYA-1237 measured after 48 hrs by CLSI M27-A3 protocol based method; type: functional; details: ATCC MYA-1237, 48 h
[30] = Selectivity index, ratio of CC50 for human A549 cells to MIC for fluconazole/ITC-resistant Candida albicans ATCC MYA-1003; type: toxicity; details: read-out: Selectivity Index
Candida albicans [31] = test: Antifungal activity against fluconazole/ITC-susceptible Candida albicans ATCC MYA-2310 measured after 48 hrs by CLSI M27-A3 protocol based method; type: functional; details: ATCC MYA-2310, 48 h
[32] = Selectivity index, ratio of compound concentration showing <20 to <30% hemolysis in mouse RBC to MIC for Candida parapsilosis ATCC 22019; type: toxicity; details: mouse red blood cells (RBC), read-out: Selectivity Index
[33] = Selectivity index, ratio of compound concentration showing <20 to <30% hemolysis in mouse RBC to MIC for Candida glabrata ATCC 2001; type: toxicity; details: mouse red blood cells (RBC), read-out: Selectivity Index
[34] = Selectivity index, ratio of compound concentration showing <20 to <30% hemolysis in mouse RBC to MIC for fluconazole/ITC-susceptible Candida albicans ATCC MYA-2310; type: toxicity; details: mouse red blood cells (RBC), read-out: Selectivity Index
[35] = Selectivity index, ratio of compound concentration showing <20 to <30% hemolysis in mouse RBC to MIC for fluconazole/ITC-resistant Candida albicans ATCC MYA-1003; type: toxicity; details: mouse red blood cells (RBC), read-out: Selectivity Index
[36] = Hemolytic activity in mouse RBC at […] ug/ml after 1 hr relative to control; type: ADME, cell-based, Erythrocyte; details: red blood cells (erythrocytes), read-out: Activity
[37] = Hemolytic activity in mouse RBC at 31.3 ug/ml after 1 hr relative to control; type: ADME, cell-based, Erythrocyte; details: red blood cells (erythrocytes), read-out: Activity
Listeria monocytogenes = test: Antibacterial activity against Listeria monocytogenes; type: functional, organism-based
[38] = Selectivity index, ratio of CC50 for human A549 cells to MIC for Aspergillus terreus ATCC MYA-3633; type: toxicity; details: read-out: Selectivity Index
[39] = Selectivity index, ratio of CC50 for human A549 cells to MIC for fluconazole/ITC-resistant Candida albicans ATCC 64124; type: toxicity; details: read-out: Selectivity Index
Staphylococcus aureus = test: Antibacterial activity against methicillin-resistant Staphylococcus aureus; type: functional, organism-based
[40] = Hemolytic activity in mouse RBC at 62.5 ug/ml after 1 hr relative to control; type: ADME, cell-based, Erythrocyte; details: red blood cells (erythrocytes), read-out: Activity
[41] = Selectivity index, ratio of CC50 for human A549 cells to MIC for fluconazole/ITC-susceptible Candida albicans ATCC MYA-2876; type: toxicity; details: read-out: Selectivity Index

## COc1ccc(N/N=C/c2ccc(-c3ccc(/C=N/Nc4ccc(OC)cc4)cc3)cc2)cc1
[1]
  selectivity ratio: 8
Aspergillus flavus
  MIC: > 31.3 µg/mL
[2]
  IC50: > 30 µM
[3]
  selectivity ratio: 2
Aspergillus terreus
  MIC: > 31.3 µg/mL
[4]
  selectivity ratio: 4
[5]
  hemolysis at 1 h, […]: 1.2%
Candida parapsilosis
  MIC: 15.6 µg/mL (≈ 34.6 µM)
[6]
  selectivity ratio: 4
[7]
  selectivity ratio: 1 to 32
[8]
  selectivity ratio: 1 to 32
A549
  CC50: > 31 µg/mL
Candida albicans [9]
  MIC: 3.9 µg/mL (≈ 8.66 µM)
Aspergillus nidulans
  MIC: 7.8 µg/mL (≈ 17.3 µM)
[10]
  hemolysis at 1 h, 3.9 ug/ml: 2.8%
[11]
  selectivity ratio: 1 to 32
BEAS-2B
  CC50: 16.4 µg/mL (≈ 36.4 µM)
Candida albicans [12]
  MIC: 7.8 µg/mL (≈ 17.3 µM)
[13]
  selectivity ratio: 2
[14]
  selectivity ratio: 4
[15]
  selectivity ratio: 4
[16]
  hemolysis at 1 h, 1.95 ug/ml: 1.9%
[17]
  selectivity ratio: 1 to 32
Pichia kudriavzevii
  MIC: 7.8 µg/mL (≈ 17.3 µM)
[18]
  selectivity ratio: 1 to 32
Enterococcus
  Activity: inactive
Nakaseomyces glabratus
  MIC: 7.8 µg/mL (≈ 17.3 µM)
Candida albicans [19]
  MIC: 7.8 µg/mL (≈ 17.3 µM)
[20]
  selectivity ratio: 4
[21]
  selectivity ratio: 1 to 32
[22]
  selectivity ratio: 1
[23]
  selectivity ratio: 1 to 32
Candida albicans [24]
  MIC: 7.8 µg/mL (≈ 17.3 µM)
[25]
  selectivity ratio: 1 to 32
[26]
  hemolysis at 1 h, 7.8 ug/ml: 4.2%
Candida albicans [27]
  MIC: 7.8 µg/mL (≈ 17.3 µM)
[28]
  selectivity ratio: 1 to 32
Candida albicans [29]
  MIC: 15.6 µg/mL (≈ 34.6 µM)
[30]
  selectivity ratio: 4
Candida albicans [31]
  MIC: 3.9 µg/mL (≈ 8.66 µM)
[32]
  selectivity ratio: 1 to 32
[33]
  selectivity ratio: 1 to 32
[34]
  selectivity ratio: 1 to 32
[35]
  selectivity ratio: 1 to 32
[36]; at 15.6 µg/mL
  hemolysis at 1 h, 15.6 ug/ml: 6.7%
[36]
  hemolysis at 1 h, 0.975 ug/ml: 1.6%
[37]
  hemolysis at 1 h, 31.3 ug/ml: 12.6%
Listeria monocytogenes
  Activity: inactive
[38]
  selectivity ratio: 1
[39]
  selectivity ratio: 8
Staphylococcus aureus
  Activity: inactive
[40]
  hemolysis at 1 h, 62.5 ug/ml: 22.7%
[41]
  selectivity ratio: 4
